Assay results: ChEMBL document CHEMBL3232884, “Design, synthesis, and biological evaluation of novel pyridine-bridged analogues of combretastatin-A4 as anticancer agents” (J Med Chem, 2014)
The source made the active and inactive calls. No cut-off for these calls is given here.

Legend:
MDA-MB-231 [1] = test: Cytotoxicity against human MDA-MB-231 cells after 72 hrs by resazurin based fluorescence assay; type: functional, cell-based
A549 = test: Cytotoxicity against human A549 cells after 72 hrs by resazurin based fluorescence assay; type: functional, cell-based
HeLa [2] = test: Cytotoxicity against human HeLa cells after 72 hrs by resazurin based fluorescence assay; type: functional, cell-based
HeLa [3] = test: Antimicrotubule activity in human HeLa cells assessed as reduction of interphase microtubule network at 1 uM after 24 hrs by indirect immunofluorescence technique; type: functional, cell-based
MDA-MB-231 [4] = test: Antimicrotubule activity in human MDA-MB-231 cells assessed as reduction of interphase microtubule network at 1 uM after 24 hrs by indirect immunofluorescence technique; type: functional, cell-based
Tubulin (Bos taurus) [5] = biological target: T1, Tubulin (Bos taurus) (UniProt Q6B856+Q862L2+Q862F3); test: Inhibition of bovine brain tubulin polymerization at 1 uM after 60 mins by spectrophotometric analysis
Tubulin (Bos taurus) [6] = biological target: T1, Tubulin (Bos taurus); test: Induction of bovine brain tubulin polymerization at 1 uM after 60 mins by spectrophotometric analysis
Tubulin (Bos taurus) [7] = biological target: T1, Tubulin (Bos taurus); test: Inhibition of bovine brain tubulin polymerization at 10 uM after 60 mins by spectrophotometric analysis
Chorioallantoic membrane = test: Antiangiogenic activity in chicken embryo chorioallantoic membrane model assessed as inhibition of bFGF/VEGF-induced new vessel growth; type: functional, tissue-based; conditions: Gallus gallus
Tubulin (Homo sapiens) = Tubulin (Homo sapiens) (UniProt P68371+Q9H4B7+P0DPH7+P68366+Q13509+Q71U36+P04350+Q3ZCM7+P07437+P68363+Q9BQE3+Q6PEY2+Q13885+Q9BVA1+Q9BUF5); test: Displacement of colchicine from tubulin (unknown origin) at 0.1 to 125 uM after 1 hr by HPLC-MS/MS analysis; type: protein-complex assay
HeLa [8] = test: Cell cycle arrest in human HeLa cells assessed as accumulation at G0/G1 phase at 1 uM after 24 hrs using propidium iodide staining by flow cytometry (reference value: 61.60%); type: functional
[9] = Plasma concentration in C57BL/6 mouse at 5 mg/kg, po after 1 hr; type: ADME, organism-based; parameters: dose 5 mg/kg, route oral
[10] = Plasma concentration in C57BL/6 mouse at 5 mg/kg, po after 3 hrs; type: ADME, organism-based; parameters: dose 5 mg/kg, route oral

Structure (SMILES) | IC50 (MDA-MB-231 [1]; Homo sapiens, MDA-MB-231, 72 h) [µM] | IC50 (A549; Homo sapiens, A549, 72 h) [µM] | IC50 (HeLa [2]; Homo sapiens, HeLa, 72 h) [µM] | further results
COc1ccc(-c2cccc(-c3ccc(O)cc3)n2)cc1OC | > 50 | > 100 | 0.86 | 
COc1cc(-c2cccc(-c3cc(OC)c(OC)c(OC)c3)n2)cc(OC)c1OC | 11 | > 50 | 1 | 
COc1ccc(-c2cccc(-c3ccc(OC)c(OC)c3)n2)cc1 | > 25 | > 25 | > 25 | 
COc1ccc(-c2cccc(-c3cc(OC)c(OC)c(OC)c3)n2)cc1OC | 2.49 | > 50 | 0.026 | 
COc1cc(-c2ccc(Br)cn2)cc(OC)c1OC | 12.1 | > 25 | 14 | 
COc1ccc(-c2cccc(-c3ccc(O)cc3)n2)cc1 | > 25 | > 25 | > 50 | 
COc1ccc(-c2cccc(-c3ccc(OC)c(OC)c3)n2)c(OC)c1 | 13 | > 25 | > 50 | 
COc1ccc(-c2cccc(-c3ccc(OC)cc3)n2)cc1 | 9 | > 100 | 2 | 
COc1cc(OC)cc(-c2cccc(-c3ccc(OC)cc3OC)n2)c1 | > 25 | > 25 | > 50 | 
COc1ccc(-c2cccc(-c3cc(OC)c(OC)c(OC)c3)n2)cc1 | > 25 | > 50 | > 50 | 
COc1ccc(-c2cccc(-c3c(OC)cc(OC)cc3OC)n2)c(OC)c1 | > 50 | > 50 | > 25 | 
COc1cccc(-c2cccc(-c3ccc(OC)cc3OC)n2)c1 | 9.02 | 0.56 | 0.067 | 
COc1ccc(-c2cccc(-c3ccc(OC)c(OC)c3)n2)cc1OC | > 50 | > 50 | > 25 | 
COc1ccc(-c2ccc(-c3cc(OC)c(OC)c(OC)c3)nc2)cc1OC | > 50 | > 50 | > 25 | 
COc1cc(-c2cccc(-c3ccc(O)cc3)n2)cc(OC)c1OC | 10 | > 25 | 8 | 
COc1cc(-c2ccc(-c3cc(OC)c(OC)c(OC)c3)nc2)cc(OC)c1OC | 11 | > 100 | 2.68 | 
COc1ccc(-c2cccc(-c3c(OC)cccc3OC)n2)c(OC)c1 | > 100 | > 100 | > 50 | 

Structure (SMILES) | IC50 (MDA-MB-231 [1]; Homo sapiens, MDA-MB-231, 72 h) [µM] | IC50 (A549; Homo sapiens, A549, 72 h) [µM] | IC50 (HeLa [2]; Homo sapiens, HeLa, 72 h) [µM] | further results
COc1ccc(-c2cccc(-c3ccc(OC)cc3OC)n2)cc1 | 0.0031 | 0.089 | 0.0038 | Activity (HeLa [3]): Active; Activity (MDA-MB-231 [4]): Active; inhibition (Tubulin (Bos taurus) [5]): inactive; Activity (Tubulin (Bos taurus) [6]): Active; inhibition (Tubulin (Bos taurus) [7]): inactive; growth inhibition (GI) (Chorioallantoic membrane): Active
COc1ccc(-c2cccc(-c3ccc(OC)c(O)c3)n2)c(OC)c1 [listing 1 of 3 here] |  |  |  | inhibition (Tubulin (Bos taurus) [5]): inactive; inhibition (Tubulin (Bos taurus) [7]): 57%; growth inhibition (GI) (Chorioallantoic membrane): Active; inhibition (Tubulin (Homo sapiens)): Active
COc1ccc(-c2cccc(-c3ccc(OC)c(O)c3)n2)c(OC)c1 [listing 2 of 3 here] |  |  |  | IC50 (MDA-MB-231 [1]; mda-mb-231): 0.0054 µM; IC50 (A549; a549): 0.042 µM; IC50 (HeLa [2]; hela): 0.0026 µM
COc1cc(-c2ccnc(-c3cc(OC)c(OC)c(OC)c3)c2)cc(OC)c1OC | 2.63 | 7.86 | 0.79 | 
COc1ccc(/C=C\c2cc(OC)c(OC)c(OC)c2)cc1O [COMBRETASTATIN A4] | 0.0028 | 0.0038 | 0.0009 | Activity (HeLa [3]): Active; Activity (MDA-MB-231 [4]): Active; Activity (HeLa [8]): 37%; inhibition (Tubulin (Bos taurus) [5]): 35%; inhibition (Tubulin (Bos taurus) [7]): Active; growth inhibition (GI) (Chorioallantoic membrane): Active; concentration at 1 h [9]: 2.3 ng/mL; concentration at 3 h [10]: 2.1 ng/mL
COc1ccc(-c2cccc(-c3ccc(O)cc3)n2)c(OC)c1 | 17.2 | 4.22 | > 100 | 
COc1ccc(-c2cccc(Br)n2)cc1 | 10 | 2 | 2 | 
COc1ccc(-c2ccnc(-c3ccc(OC)cc3OC)c2)c(OC)c1 | > 50 | > 50 | > 25 | 
COc1ccc(-c2cccc(-c3ccc(OC)c(O)c3)n2)c(OC)c1 [listing 3 of 3 here] | 0.0046 | 0.044 | 0.0014 | concentration at 1 h [9]: 9.2 ng/mL
COc1ccc(-c2ccc(-c3ccc(OC)cc3OC)nc2)c(OC)c1 | > 100 | > 100 | > 50 | 
COc1ccc(-c2cccc(Br)n2)c(OC)c1 | > 100 | > 50 | > 50 | 
COc1ccc(-c2cccc(-c3ccccc3OC)n2)c(OC)c1 | > 25 | > 50 | > 25 | 
COc1ccc(-c2cccc(Br)n2)cc1OC | > 25 | > 25 | > 50 | 
COc1cc(-c2cccc(Br)n2)cc(OC)c1OC | 6 | 9 | 12 | 
COc1ccc(-c2cccc(-c3ccc(OC)cc3OC)n2)c(OC)c1 | 0.075 | 0.079 | 0.011 | 
COc1ccc(-c2cccc(-c3cccc(OC)c3OC)n2)c(OC)c1 | > 50 | > 50 | > 50 | 
